The values below come from patent US9260425B2 (Genetech, Inc., priority 2011, dated 2016).

The assay deals with Pim-1 (Homo sapiens (Human), UniProt P11309). Kind of assay: Pim kinase binding activity assay (Example 901), PIM-1 enzyme, Caliper microfluidic peptide phosphorylation. It counts as biochemical. Conditions: 20 pM PIM-1, 10 μM ATP, 1 μM FAM-peptide, 90 minutes at room temperature. A digest of the protocol: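 PIM-1 at 20 pM phosphorylated 1 μM FAM-labelled Pim peptide with 10 μM ATP in HEPES pH 7.2, MgCl2, Tween 20 and DTT for 90 min at room temperature. EDTA stopped the reaction, and product and substrate were resolved by microfluidic electrophoresis (ex 488/em 530 nm). Ki was derived from substrate conversion.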
Chain of Pim-1 (P11309 whole entry): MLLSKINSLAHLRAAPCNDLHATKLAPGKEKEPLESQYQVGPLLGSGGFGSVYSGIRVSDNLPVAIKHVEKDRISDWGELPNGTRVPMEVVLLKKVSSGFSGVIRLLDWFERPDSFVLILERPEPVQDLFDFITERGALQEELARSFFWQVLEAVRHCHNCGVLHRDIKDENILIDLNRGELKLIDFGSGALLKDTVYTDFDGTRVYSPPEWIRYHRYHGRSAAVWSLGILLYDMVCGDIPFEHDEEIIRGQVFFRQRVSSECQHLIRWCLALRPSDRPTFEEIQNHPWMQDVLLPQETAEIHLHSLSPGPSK
In the case of `c1cncc(-c2cc3c(CNCC4CCNCC4)n[nH]c3cn2)c1` [Example 113, 1-(piperidin-4-yl)-N-((5-(pyridin-3-yl)-1H-pyrazolo[3,4-c]pyridin-3-yl)methyl)methanamine], the Ki was found to be 3200 nM. Compound `COc1ccc(F)c(-c2n[nH]c3cnc(-c4cnn(C)c4)cc23)c1` [Example 172, 3-(2-fluoro-5-methoxyphenyl)-5-(1-methyl-1H-pyrazol-4-yl)-1H-pyrazolo[3,4-c]pyridine] showed a Ki of 3.76 nM. Compound `NC1CCN(c2ccncc2-c2cc3c(-c4ccccc4F)n[nH]c3cn2)CC1` [Example 128, 1-(3-(3-(2-fluorophenyl)-1H-pyrazolo[3,4-c]pyridin-5-yl)pyridin-4-yl)piperidin-4-amine] showed an inhibition constant (Ki) of 1500 nM.

For the compound `CCn1cc(-c2cc3c(-c4ccc(C5CC5)c(N5CCC[C@H](N)C5)n4)n[nH]c3cn2)cn1` [Example 506, (S)-1-(3-cyclopropyl-6-(5-(1-ethyl-1H-pyrazol-4-yl)-1H-pyrazolo[3,4-c]pyridin-3-yl)pyridin-2-yl)piperidin-3-amine], affinity was put at a Ki of 0.021 nM. In turn, `N#Cc1cc2c(-c3cccc(N4CCNCC4)n3)n[nH]c2cn1` [Example 400, 3-(6-(piperazin-1-yl)pyridin-2-yl)-1H-pyrazolo[3,4-c]pyridine-5-carbonitrile] yielded an inhibition constant Ki of 51.1 nM. Against the preceding compound, the Ki is about 2400-fold higher. Next, `Cc1ccc(-c2cc3c(-c4cccc(N5CCNCC5)n4)n[nH]c3cn2)cn1` [Example 367]: 0.217 nM; `Cc1n[nH]c2cnc(-c3ccn[nH]3)cc12` [Example 103, 3-methyl-5-(1H-pyrazol-5-yl)-1H-pyrazolo[3,4-c]pyridine]: 1300 nM; `CCn1cc(-c2cc3c(-c4cc(C5CC5)ccn4)n[nH]c3cn2)cn1` [Example 484, 3-(4-cyclopropylpyridin-2-yl)-5-(1-ethyl-1H-pyrazol-4-yl)-1H-pyrazolo[3,4-c]pyridine]: 11.5 nM. In turn, `c1cncc(-c2cc3c(-c4cccc(N5CCC(C6CCNCC6)CC5)n4)n[nH]c3cn2)c1` [Example 273, 3-(6-(4,4′-bipiperidin-1-yl)pyridin-2-yl)-5-(pyridin-3-yl)-1H-pyrazolo[3,4-c]pyridine] registered a Ki of 0.07 nM. With `CCn1cc(-c2cc3c(-c4cncc(N5CCNCC5)n4)n[nH]c3cn2)cn1` [Example 479, 5-(1-ethyl-1H-pyrazol-4-yl)-3-(6-(piperazin-1-yl)pyrazin-2-yl)-1H-pyrazolo[3,4-c]pyridine], the affinity corresponds to a Ki of 0.064 nM. For `c1cc(-c2n[nH]c3cnc(C4CCOC4)cc23)nc(N2CCNCC2)c1` (centres unmarked) [Example 212, 3-(6-(piperazin-1-yl)pyridin-2-yl)-5-(tetrahydrofuran-3-yl)-1H-pyrazolo[3,4-c]pyridine], the inhibition constant Ki was found to be 8.48 nM. Regarding `Cn1cc(-c2cc3c(-c4ccc(Br)c(N5CCC[C@H](O)C5)n4)n[nH]c3cn2)cn1` [Example 393, (S)-1-(3-bromo-6-(5-(1-methyl-1H-pyrazol-4-yl)-1H-pyrazolo[3,4-c]pyridin-3-yl)pyridin-2-yl)piperidin-3-ol], the inhibition constant Ki is 0.333 nM. Take `Fc1ccccc1-c1n[nH]c2cnc(-c3cnccc3OC3CCNCC3)cc12` [Example 195, 3-(2-fluorophenyl)-5-(4-(piperidin-4-yloxy)pyridin-3-yl)-1H-pyrazolo[3,4-c]pyridine]: the Ki came out at 0.567 nM. Regarding `Cc1n[nH]c2cnc(-c3cnccc3N3CCC[C@@H](N)C3)cc12` [Example 119, (R)-1-(3-(3-methyl-1H-pyrazolo[3,4-c]pyridin-5-yl)pyridin-4-yl)piperidin-3-amine], affinity was put at a Ki of 1100 nM. Next, `Cc1ccc(-c2n[nH]c3cnc(-c4cccnc4)cc23)nc1N1CCC[C@H](N)C1` [Example 315, (S)-1-(3-methyl-6-(5-(pyridin-3-yl)-1H-pyrazolo[3,4-c]pyridin-3-yl)pyridin-2-yl)piperidin-3-amine]: 0.00806 nM; `CCn1cc(-c2cc3c(-c4cccc(N5CCCNCC5)n4)n[nH]c3cn2)cn1` [Example 409, 3-(6-(1,4-diazepan-1-yl)pyridin-2-yl)-5-(1-ethyl-1H-pyrazol-4-yl)-1H-pyrazolo[3,4-c]pyridine]: 0.02 nM. Compound `CCc1ccc(-c2n[nH]c3cnc(-c4cnn(CC)c4)cc23)nc1N1CCC[C@H](N)C1` [Example 477, (S)-1-(3-ethyl-6-(5-(1-ethyl-1H-pyrazol-4-yl)-1H-pyrazolo[3,4-c]pyridin-3-yl)pyridin-2-yl)piperidin-3-amine] showed an inhibition constant Ki of 0.013 nM. `Cn1cc(-c2cc3c(-c4cccc(NCC(C)(C)O)n4)n[nH]c3cn2)cn1` [Example 297, 2-methyl-1-(6-(5-(1-methyl-1H-pyrazol-4-yl)-1H-pyrazolo[3,4-c]pyridin-3-yl)pyridin-2-ylamino)propan-2-ol] showed an inhibition constant (Ki) of 0.034 nM. In turn, `Fc1cccc(-c2n[nH]c3cnc(-c4cccnc4)cc23)n1` [Example 131, 3-(6-fluoropyridin-2-yl)-5-(pyridin-3-yl)-1H-pyrazolo[3,4-c]pyridine] came in with a Ki of 13.1 nM. Compared with the last compound, the Ki is about 390-fold higher.

Turning to `CCn1cc(-c2cc3c(-c4cccc(N5CCCCC(N)C5)n4)n[nH]c3cn2)cn1` (centres unmarked) [Example 518, 1-(6-(5-(1-ethyl-1H-pyrazol-4-yl)-1H-pyrazolo[3,4-c]pyridin-3-yl)pyridin-2-yl)azepan-3-amine], affinity was put at a Ki of 0.082 nM. Next, `c1cc(-c2n[nH]c3cnc(-n4ccnc4)cc23)nc(N2CCNCC2)c1` [Example 368, 5-(1H-imidazol-1-yl)-3-(6-(piperazin-1-yl)pyridin-2-yl)-1H-pyrazolo[3,4-c]pyridine]: 1.82 nM. With `Cc1n[nH]c2cnc(-c3cnccn3)cc12` [Example 118, 3-methyl-5-(pyrazin-2-yl)-1H-pyrazolo[3,4-c]pyridine], the inhibition constant Ki amounted to 620 nM. This Ki is about 340-fold higher than that of the compound before. Turning to `Cc1n[nH]c2cnc(-c3cncc(N4CCC(N)CC4)n3)cc12` [Example 110, 1-(6-(3-methyl-1H-pyrazolo[3,4-c]pyridin-5-yl)pyrazin-2-yl)piperidin-4-amine], the inhibitory constant (Ki) amounted to 5.8 nM. With `CCn1cc(-c2cc3c(-c4cccc(N5CCN[C@H](C)C5)n4)n[nH]c3cn2)cn1` [Example 397, (R)-5-(1-ethyl-1H-pyrazol-4-yl)-3-(6-(3-methylpiperazin-1-yl)pyridin-2-yl)-1H-pyrazolo[3,4-c]pyridine], the inhibitory constant (Ki) worked out at 0.046 nM. On to `NC1CCCN(c2cncc(-c3cc4c(-c5ccccc5F)n[nH]c4cn3)c2)CC1` (centres unmarked) [Example 166, 1-(5-(3-(2-fluorophenyl)-1H-pyrazolo[3,4-c]pyridin-5-yl)pyridin-3-yl)azepan-4-amine], for which the Ki amounted to 0.574 nM. Compound `OCCn1cc(-c2cc3c(-c4cccc(N5CCNCC5)n4)n[nH]c3cn2)cn1` [Example 496, 2-(4-(3-(6-(piperazin-1-yl)pyridin-2-yl)-1H-pyrazolo[3,4-c]pyridin-5-yl)-1H-pyrazol-1-yl)ethanol] gave an inhibition constant Ki of 0.13 nM.

The compound `Cc1ccc(-c2n[nH]c3cnc(-c4cnn(C)c4)cc23)nc1N1CCN(C)CC1` [Example 440, 5-(1-methyl-1H-pyrazol-4-yl)-3-(5-methyl-6-(4-methylpiperazin-1-yl)pyridin-2-yl)-1H-pyrazolo[3,4-c]pyridine] registered a Ki of 0.029 nM. Turning to `Cn1cc(-c2cc3c(-c4cccc(N5CCC[C@@](C)(O)C5)n4)n[nH]c3cn2)cn1` [Example 424, (R)-3-methyl-1-(6-(5-(1-methyl-1H-pyrazol-4-yl)-1H-pyrazolo[3,4-c]pyridin-3-yl)pyridin-2-yl)piperidin-3-ol], affinity was put at a Ki of 0.073 nM. This Ki lies about 2.5-fold higher than the previous one. For `Cc1n[nH]c2cnc(-c3cn[nH]c3)cc12` [Example 102, 3-methyl-5-(1H-pyrazol-4-yl)-1H-pyrazolo[3,4-c]pyridine] the value was 302 nM; for `CCn1cc(-c2cc3c(-c4cc(C#N)cc(N5CCCNCC5)n4)n[nH]c3cn2)cn1` [Example 490, 2-(1,4-diazepan-1-yl)-6-(5-(1-ethyl-1H-pyrazol-4-yl)-1H-pyrazolo[3,4-c]pyridin-3-yl)isonicotinonitrile], 0.107 nM. For `Fc1ccccc1-c1n[nH]c2cnc(-c3cnccc3O[C@H]3CCCNC3)cc12` [Example 148, (S)-3-(2-fluorophenyl)-5-(4-(piperidin-3-yloxy)pyridin-3-yl)-1H-pyrazolo[3,4-c]pyridin], the Ki was 0.342 nM. As for `NC[C@@H]1CCN(c2ccncc2-c2cc3c(-c4ccccc4F)n[nH]c3cn2)C1` [Example 130, (S)-(1-(3-(3-(2-fluorophenyl)-1H-pyrazolo[3,4-c]pyridin-5-yl)pyridin-4-yl)pyrrolidin-3-yl)methanamine], affinity was put at a Ki of 1500 nM. With `O[C@@H]1CCN(c2nc(-c3n[nH]c4cnc(-c5cccnc5)cc34)ccc2Br)C1` [Example 293, (R)-1-(3-bromo-6-(5-(pyridin-3-yl)-1H-pyrazolo[3,4-c]pyridin-3-yl)pyridin-2-yl)pyrrolidin-3-ol], the affinity, expressed as Ki, was 0.412 nM. This Ki lies about 3600-fold lower than the previous one. Regarding `Cc1n[nH]c2cnc(-c3cnn(C4COC4)c3)cc12` [Example 114, 3-methyl-5-(1-(oxetan-3-yl)-1H-pyrazol-4-yl)-1H-pyrazolo[3,4-c]pyridine], the affinity corresponds to a Ki of 844 nM. In turn, `CC(C)(C)n1cc(-c2cc3c(-c4cccc(N5CCNCC5)n4)n[nH]c3cn2)cn1` [Example 448, 5-(1-tert-butyl-1H-pyrazol-4-yl)-3-(6-(piperazin-1-yl)pyridin-2-yl)-1H-pyrazolo[3,4-c]pyridine] came in with an inhibition constant (Ki) of 0.376 nM. Compound `NC(=O)c1cccc(-c2n[nH]c3cnc(-c4cccnc4)cc23)c1` [Example 125, 3-(5-(pyridin-3-yl)-1H-pyrazolo[3,4-c]pyridin-3-yl)benzamide] came in with an inhibition constant Ki of 307 nM. Next, `CCn1cc(-c2cc3c(-c4cccc(N5CCCC[C@H](O)C5)n4)n[nH]c3cn2)cn1` [Example 501, (S)-1-(6-(5-(1-ethyl-1H-pyrazol-4-yl)-1H-pyrazolo[3,4-c]pyridin-3-yl)pyridin-2-yl)azepan-3-ol]: 0.103 nM; `Cn1cc(-c2cc3c(-c4cccc(N5C[C@@H](N)C[C@@H](F)C5)n4)n[nH]c3cn2)cn1` [Example 495, (3S,5R)-5-fluoro-1-(6-(5-(1-methyl-1H-pyrazol-4-yl)-1H-pyrazolo[3,4-c]pyridin-3-yl)pyridin-2-yl)piperidin-3-amine]: 0.122 nM.

The Ki is a dissociation constant, usually derived from enzyme kinetics or from competition with a known ligand. Low values mean higher affinity, high ones lower affinity.
